Common to all, as to format: in vivo, Wistar rats
One test relates to sorbitol. In words: Sorbitol in subcutaneous muscle subjacent to the wound. The following applies: diabetic rats, wet muscle weight. The protocol: Each muscle sample was cut into small pieces and ground in the presence of liquid nitrogen until it was powdered. The weight of the powered muscle tissue was determined, after which 1 mL of ice-cold 0.5 M perchloric acid was added and the samples were sonicated. The sonicated tissue was centrifuged for 5 min to remove precipitate. The resulting supernatant was neutralized by adding a solution 0.5 M potassium carbonate. The solution was then vortexed for 45 seconds, then centrifuged for 5 min at 5000 g and precipitate was discarded. The samples were stored in deep freezer at −86° C. until sorbitol determination.
The neutralized muscle extracts were vortexed and 10 μL aliquots along with sorbitol standards were added to a 96 well plate. Sorbitol dehydrogenase reaction was started by adding to each well 10 μL of a reaction mix containing 20 μg/μL sorbitol dehydrogenase, 2 mM NAD in 50 mM glycine-NaOH buffer pH 9.7. Following incubation with sorbitol dehydrogenase for 30 min at room temperature, 100 μL of a solution containing 65 μg/mL diaphorase, 10 uM FMN, 20 μM resazurin in 50 mM glycine-NaOH, pH 9.7 was added and the fluorescence (ex/em at 544/590 nm) was determined on a fluorescent plate reader for a period of an hour. Sorbitol content was expressed in nmol/mg of wet muscle weight.

The target in another test is T1, aldose reductase (Rattus norvegicus, UniProt P07943).
T1 construct: Tissue samples were homogenized in 135 mM Na, K-phosphate buffer (pH 7.0) containing 5 mM 2-mercaptoethanol; from tissue; host or cells: rat subcutaneous muscle subjacent to the wound (supernatant of the homogenate)
In words: Rat subcutaneous muscle aldose reductase activity. Particulars: subcutaneous muscle subjacent wound, diabetic rats. The method, then: Tissue samples were homogenized in 135 mM Na, K-phosphate buffer (pH 7.0) containing 5 mM 2-mercaptoethanol. The homogenate was centrifuged at 12,000 g for 30 min and the supernatant was used in the following steps. Aldose reductase activity was determined according to the classic method with glyceraldehyde as substrate. The incubation mixture contained 135 mM Na, K-phosphate buffer (pH 7.0), 100 mM lithium sulfate, 0.03 mM NADPH, 0.04 mM D,L-glyceraldehyde (monomerized at 80 deg C. for 10 min and cooled to RT) as a substrate and the sample solution (50 μL). The reaction was initiated by adding NADPH at 37 C and stopped by adding 0.5 M HCl, followed by the addition of 6 M NaOH containing 10 mM imidazole. The solution was heated at 60 C for 10 min to convert NADP to a fluorescent product. The fluorescence was measured using a spectrofluorometer with ex/em 360/460 nm. The assay was performed in duplicates. Protein content was determined using BCA assay.

Test [1] relates to rats with alloxan-induced diabetes. In words: Histology of healed wound skin. Particulars: diabetic rats, skin excised next day after full epithelization; hematoxylin-eosin and van Gison staining. The method, then: Tissue specimens next day after full epithelization were excised in depth to include underlying connective tissues above the external fascia of the dorsal muscles. The excised skin was fixed in paraformaldehyde (4% in PBS, 0.01 M, pH 7.4), dehydrated in graded alcohol solutions, embedded in paraffin blocks and sectioned at 5 μm-thick serial sections using microtome.
Preparations from the collected skin fragments were prepared in a standard manner and stained with the classic method using hematoxylin and eosin, and by the van Gison method using picric acid and acid fuchsine. The preparations were analyzed using a Leica DM 1000 light microscope equipped with a Leica DFC300 FX digital camera.

Test [2] shares this test system. Kind of test: Healing of excision wounds in rats with alloxan-induced diabetes, solutions applied on the wound. The following applies: diabetic rats, 200 μl/daily on wound surface until full healing. The method, then:
Use of 2-[(3Z)-6-fluoro-2-methyl-3-[(4-methylsulfinylphenyl)methylidene]inden-1-yl] acetic acid (sulindac) for the treatment of difficult healing wounds in rats with alloxan-induced diabetes.
63 adult male Wistar rats were used in the experiment. All animals were kept under observation for two weeks before the onset of the experiment to exclude any intercurrent infection. Animals were housed in standard plastic cages by 5 animals per cage. Rats were kept in air-conditioned room at 22±2° C., humidity of 60-70% and a natural light (12/12 in the day/night cycle). All rats were fed ad libitum with standard laboratory rats chow.
Diabetes mellitus was induced with alloxan, a highly toxic compound that destroyed the β-cells of the pancreas Langerhans islets, by single intraperitoneally injection at dose 170 mg per kg of body weight in 0.1 M citrate-phosphate buffer, pH 4.0 after 24-hours fasting. After alloxan administration drinking water was replaced by 2 per cent sucrose solution in tap water on 10 days period.
Rats were identified as diabetic on the basis of blood glucose levels (higher than 16 mmol/l after 12 h starvation at 10 days post-alloxan treatment; total 31 rats were diabetic). […]
Every day wounds were photographed by digital camera. Wound macroscopic parameters were quantified using the ImageJ software (NIH, USA).

The mark [3] stands for this setting: mediana (25th; 75th percentile).

Consider `CC1=C(CC(=O)O)c2cc(F)ccc2/C1=C\c1ccc([S+](C)[O-])cc1` (stereo not shown) [Sul, 2-[(3Z)-6-fluoro-2-methyl-3-[(4-methylsulfinylphenyl)methylidene]inden-1-yl] acetic acid], for which the Sorbitol levels in the test with sorbitol (M±m (SEM)) is 0.057 ± 0.005 nmol/mg; in the test on sorbitol (setting [3]), 0.053(0.048; 0.075) ^ΔΔΔ nmol/mg. Also, the AR is reported as 0.64 ± 0.04 nmole NADPH/min/mg protein on aldose reductase (M±m (SEM)) and 0.677(0.63; 0.69) ^ΔΔΔ nmole NADPH/min/mg protein at aldose reductase (setting [3]). The “Histology of the area of damage” value in test [1] is given as “the skin was rebuilt in the form of a scar tissue made of modified connective tissue”. The figures for the Full healing in test [2] (M±m (SEM)) and in test [2] (setting [3]) were 23.7 ± 0.65 days and 24.0(22.0; 25.0) ^Δ days, respectively.

(Values after US20200129459A1, “THE NEW USE OF 2-[(3Z)-6-FLUORO-2-METHYL-3-[(4-[…]) METHYLIDENE]INDEN-1 -YL] ACETIC ACID” (WYZSZA SZKOLA MEDYCZNA W BIALYMSTOKU, priority 2017, published 2020).)
